# Measured values from ChEMBL document CHEMBL3621159, “Discovery of an orally active subtype-selective HDAC inhibitor, chidamide, as an epigenetic modulator for cancer treatment” (Medchemcomm, 2014).
# Tests used:
# [1] = Cmax in patient at 32.5 mg, po administered as single dose; assay type: ADME, organism-based; design: dose 32.5 mg, route oral; conditions: human, in vivo
# [2] = Cytotoxicity against human solid tumor cells assessed as growth inhibition; assay type: functional
# [3] = Cytotoxicity against human hematopoietic malignant cells assessed as growth inhibition; assay type: functional
# [4] = Half life in patient at 25 to 50 mg, administered as single dose; assay type: ADME, organism-based; conditions: human, in vivo
# [5] = AUC in patient at 32.5 mg, po administered as single dose; assay type: ADME, organism-based; conditions: human, in vivo
structure (smiles),measurement,setting,value
Nc1cc(F)ccc1NC(=O)c1ccc(CNC(=O)/C=C/c2cccnc2)cc1 [TUCIDINOSTAT],Cmax,[1],312 nM
same,GI50,[2],6.65 µM
same,GI50,[3],1.86 µM
same,half-life,[4],24 h
same,AUC,[5],2.24 µM·h
